ChEMBL document CHEMBL4411286, “Discovery of new potent hits against intracellular Trypanosoma cruzi by QSAR-based virtual screening” (Eur J Med Chem, 2019)

What was measured:
[1] = Cytotoxicity against human U2OS cells assessed as reduction in cell viability after 96 hrs; type: cell-based
[2] = Selectivity index, ratio of CC50 for human U2OS cells to EC50 for Trypanosoma cruzi Y infected in human U2OS cells; type: toxicity, cell-based; details: read-out: Ratio CC50/EC50
Trypanosoma cruzi = test: Antimicrobial activity against Trypanosoma cruzi Y infected in human U2OS cells after 96 hrs by HCS assay; type: functional, organism-based

Compound	CC50 at 96 h ([1]; read-out: CC50)	selectivity ratio [2]	EC50 (Trypanosoma cruzi; read-out: EC50)	EC50 (Trypanosoma cruzi; read-out: pEC50 (converted))	CC50 at 96 h ([1]; read-out: pCC50 (converted))
COc1cccc(-c2noc(-c3cccnc3)n2)c1	106 µM	1.2	86 µM	85.1 µM	–
C=CCSc1nc(-c2ccc(OC)cc2)n[nH]1	195 µM	1.3	149 µM	–	–
Clc1ccc(-c2csc(-c3cccnc3)n2)cc1	> 200 µM	> 48	4.2 µM	4.17 µM	–
Cc1nnc(SCC(=O)N2c3ccccc3CC2C)n1-c1ccccc1 (centres undefined)	155 µM	4.2	36.9 µM	37.2 µM	–
Cc1ccc(-n2c(SCC(=O)N3CCN(c4ccccc4)CC3)nnc2-c2ccncc2)cc1Cl	21.1 µM	3	7 µM	6.92 µM	–
Cc1ccc(-c2csc(-c3cccnc3)n2)cc1C	40.8 µM	15.1	2.7 µM	2.69 µM	–
O=C(NC(Cn1ccnc1)c1ccccc1)c1cccc(-n2cccn2)c1 (centres undefined)	11.8 µM	46.3	0.3 µM	0.257 µM	11.7 µM
COc1ccc(S(=O)(=O)N(Cc2ccncc2)Cc2ccc(OCC(C)C)cc2)cc1OC	21.7 µM	45.7	0.5 µM	0.479 µM	21.9 µM
CC1=C(C(=O)OCCc2ccccc2)C(c2ccncc2)C2=C(CC(c3ccccc3)CC2=O)N1 (centres undefined)	> 200 µM	–	> 200 µM	> 200 µM	–
COc1ccc(N2CCN(C(=O)COc3ccc(C4CCCCC4)cc3)CC2)c([N+](=O)[O-])c1	49.6 µM	1.3	38.3 µM	–	–
Cc1ccc(N2C(=O)C(CC(=O)Nc3ccccc3)N(Cc3cccnc3)C2=O)cc1 (centres undefined)	> 200 µM	> 1	191 µM	–	–
CC(C)COc1ccc(CN(Cc2ccncc2)S(=O)(=O)c2ccc(F)c(F)c2)cc1	11.5 µM	30.6	0.4 µM	0.38 µM	11.5 µM
Cc1nnc(-c2cccc(-c3ccnc4[nH]ccc34)c2)s1	127 µM	< 0.6	> 200 µM	–	–
O=C(NC(Cn1ccnc1)c1ccccc1)c1csc(-c2cccs2)n1 (centres undefined)	> 200 µM	–	> 200 µM	> 200 µM	200 µM
CC(Oc1ccc(-c2ccccc2)cc1)C(=O)Nc1ccc(S(=O)(=O)Nc2nccs2)cc1 (centres undefined)	> 200 µM	–	> 200 µM	–	–
Clc1ccc(Cc2nn3c(CN4CCN(c5ccccc5)CC4)nnc3s2)cc1	> 200 µM	–	> 200 µM	–	–
O=C(CSc1nc(-c2ccncc2)n[nH]1)N1CCN(c2ccccc2)CC1	> 200 µM	> 9.9	20.1 µM	20 µM	–
Cc1nccn1-c1ccc(Cn2ccnc2-c2cc3ccccc3[nH]c2=O)cc1	52.9 µM	43.9	1.2 µM	–	–
Nc1ncc(-c2nc(-c3cccnn3)no2)c(-c2ccccc2)n1	99.7 µM	< 0.5	> 200 µM	–	–
Cn1c(SCC(=O)N2CCN(c3ccccc3)CC2)nnc1-c1ccc(Br)cc1	> 200 µM	–	> 200 µM	> 200 µM	–

Compound	CC50 at 96 h ([1]; read-out: CC50)	selectivity ratio [2]	EC50 (Trypanosoma cruzi; read-out: EC50)	EC50 (Trypanosoma cruzi; read-out: pEC50 (converted))	CC50 at 96 h ([1]; read-out: pCC50 (converted))
O=C(N/C(=C/c1cccnc1)c1nc2ccccc2[nH]1)c1cccc(Br)c1	47.4 µM	2.5	18.9 µM	–	–
c1cncc(-c2nc(-c3cnccn3)n[nH]2)c1	1.5 µM	0.4	3.4 µM	–	–
COc1ccc(N2CCN(C(=O)CN(Cc3ccccc3C)S(=O)(=O)c3ccc(Cl)cc3)CC2)cc1	73.9 µM	27.7	2.7 µM	2.69 µM	74.1 µM
O=C(NC(Cn1ccnc1)c1ccccc1)c1ccc(-n2cnnn2)cc1 (centres undefined)	33.6 µM	137	0.3 µM	0.257 µM	35.5 µM
COc1ccc2c(c1)cc(C(=O)NC(Cn1ccnc1)c1ccccc1)n2C (centres undefined)	0.62 µM	–	13.3 µM	13.2 µM	0.617 µM
N#Cc1ccc(-c2ccc(OCC(=O)N3CCN(c4cccc(Cl)c4)CC3)cc2)cc1	> 200 µM	–	> 200 µM	–	–
Cc1ncsc1CCC(=O)NC(Cn1ccnc1)c1ccccc1 (centres undefined)	> 200 µM	–	> 200 µM	–	–
CC(=O)Nc1ccc(Cl)c(C(=O)NC(Cn2ccnc2)c2ccccc2)c1 (centres undefined)	> 200 µM	> 72.8	2.7 µM	–	–
O=C(CC(Nc1ccc2ccccc2c1)c1ccncc1)c1ccc(Br)cc1 (centres undefined)	> 200 µM	> 258	0.8 µM	–	–
COc1ccc(C2CC(=O)C3=C(C2)NC(C)=C(C(=O)OCCc2ccccc2)C3c2ccncc2)cc1 (centres undefined)	19.3 µM	46.5	0.4 µM	0.417 µM	–
Oc1ccccc1-c1n[nH]c(-c2ccccn2)n1	> 200 µM	–	> 200 µM	–	–
Cc1ccccc1-c1noc(-c2cccnc2)n1	> 200 µM	> 10.8	18.6 µM	18.6 µM	–
O=C(COc1ccc(-c2ccccc2)cc1)N1CCN(S(=O)(=O)c2ccc(F)cc2)CC1	> 200 µM	–	> 200 µM	> 200 µM	200 µM
CC1Cc2ccccc2N1C(=O)CSc1nnnn1-c1ccccc1 (centres undefined)	> 200 µM	> 1.8	109 µM	110 µM	–
CC(C)COc1ccc(CN(Cc2ccncc2)S(=O)(=O)c2cccc(F)c2)cc1	> 200 µM	–	> 200 µM	> 200 µM	200 µM
c1cncc(-c2nc(-c3cccs3)no2)c1	66.3 µM	< 0.3	> 200 µM	> 200 µM	–
Cn1c(SCC(=O)N2CCN(c3ccccc3F)CC2)nnc1-c1cccnc1	198 µM	< 1	> 200 µM	> 200 µM	–
CC(C)COc1ccc(CN(Cc2ccncc2)S(=O)(=O)c2ccc(F)cc2F)cc1	> 200 µM	> 274	0.7 µM	0.724 µM	200 µM
O=C(Cn1ccnc1[N+](=O)[O-])NCc1ccccc1 [BENZNIDAZOLE]	> 200 µM	> 128	3.1 µM	–	–
